The subject of assay [1] is RKO (RKOp27) human colon adenocarcinoma cells. The assay can be described thus: Alamar Blue cell viability assay, anti-proliferative/cytotoxic activity on proliferating (uninduced) RKOp27 cells. Format: cell-based. The settings on record: RKOp27 subclone without inducer, 72 hours incubation, read-out: IC50 RKO p27 uninduced (proliferating). As for the experimental part: The anti-proliferative/cytotoxic activity of the compounds described herein, can be tested on subclones of RKO (RKOp27) human colon adenocarcinoma cells (Schmidt et al., Oncogene 19, 2423-2429; 2000) using the Alamar Blue cell viability assay (described in O'Brien et al. Eur J Biochem 267, 5421-5426, 2000). The compounds are dissolved as 20 mM solutions in dimethylsulfoxide (DMSO) and subsequently diluted in semi-logarithmic steps. DMSO dilutions are further diluted 1:100 into Dulbecco's modified Eagle's medium (DMEM) containing 10% fetal calf serum to a final concentration twice as much as the final concentration in the test. RKO subclones are seeded into 96 well flat bottom plates at a density of 4000 cells per well in a volume of 50 μl per well. 24 hours after seeding the 50 μl each of the compound dilutions in DMEM medium are added into each well of the 96 Well plate. Each compound dilution is tested as quadruplicates. Wells containing untreated control cells are filled with 50 μl DMEM medium containing 1% DMSO. The cells are then incubated with the substances for 72 hours at 37° C. in a humidified atmosphere containing 5% carbon dioxide. To determine the viability of the cells, 10 μl of an Alamar Blue solution (Biosource) are added and the fluorescence is measured at an extinction of 544 nm and an emission of 590 nm. For the calculation of the cell viability the emission value from untreated cells is set as 100% viability and the emission rates of treated cells are set in relation to the values of untreated cells. Viabilities are expressed as % values.
The corresponding IC50 values of the compounds for anti-proliferative/cytotoxic activity are determined from the concentration-effect curves.
Representative IC50 values for anti-proliferation/cytotoxicity determined in the mentioned assay follow from the following table A, in which the numbers of the compound correspond to the numbers of the examples.
(In general: Alamar Blue is a resazurin reagent that responds to reducing activity.)

In assay [2] the test system is RKO colon adenocarcinoma cells (RKOp27) arrested by the expression of ectopic p27Kip1. The assay can be described thus: Alamar Blue cell viability assay on RKOp27 cells arrested by Ponasterone A-induced p27Kip1 expression (cell cycle specific mode of action). Format: cell-based. The settings on record: Homo sapiens, RKOp27 subclone induced with 10 μM Ponasterone A, 72 hours incubation, read-out: IC50 RKO p27 induced (arrested). As to the method:
To determine the cell cycle specific mode of action, subclones of RKO colon adenocarcinoma cells (RKOp27 or RKOp21 as described by Schmidt et al. in Oncogene 19, 2423-2429; 2000) are seeded into 96 well flat bottom plates at a density of 16000 cells per well in a volume of 50 μl per well in DMEM growth medium with 10% FCS containing 10 μM Ponasterone A. 24 hours after seeding the 50 μl each of the compound dilutions in DMEM medium are added into each well of the 96 Well plate. Each compound dilution is tested as quadruplicates. Wells containing untreated control cells are filled with 50 μl DMEM medium containing 1% DMSO. The cells are then incubated with the substances for 72 hours at 37° C. in a humidified atmosphere containing 5% carbon dioxide. To determine the viability of the cells, 10 μl of an Alamar Blue solution (Biosource) are added and the fluorescence was measured at an extinction of 544 nm and an emission of 590 nm. For the calculation of the cell viability the emission value from untreated cells is set as 100% viability and the emission rates of treated cells are set in relation to the values of untreated cells. Viabilities are expressed as % values. Viability is compared of proliferating cells grown in the absence of the inducer Ponasterone A, versus viability of cells arrested by the expression of ectopic p27Kip1 induced by Ponasterone A.

Where only a bound is given, the exact number is not on record here.

Usually IC50 stands for the concentration that inhibits the measured activity by half. Regarding `COCCOC(=O)N1CCc2c(sc(NC(=O)CCc3ccco3)c2C#N)C1` [Example 41, 3-Cyano-2-(3-furan-2-yl-propanoylamino)-4,7-dihydro-5H-thieno[2,3-c]pyridine-6-carboxylic acid 2-methoxy-ethyl ester], the figures for the half-maximal inhibitory concentration (IC50) in assay [1] and in assay [2] were no more than 300 nM and greater than 100000 nM, respectively.

On to `N#Cc1c(NC(=O)CCc2ccco2)sc2c1CCN(C(=O)OCc1ccccn1)C2` [Example 42, 3-Cyano-2-(3-furan-2-yl-propanoylamino)-4,7-dihydro-5H-thieno[2,3-c]pyridine-6-carboxylic acid pyridin-2-ylmethyl ester], for which the results for the IC50 in assay [1] and in assay [2] were no more than 300 nM and greater than 100000 nM, respectively.

For the compound `N#Cc1c(NC(=O)CCc2ccco2)sc2c1CCN(C(=O)OCc1cccnc1)C2` [Example 43, 3-Cyano-2-(3-furan-2-yl-propanoylamino)-4,7-dihydro-5H-thieno[2,3-c]pyridine-6-carboxylic acid pyridin-3-ylmethyl ester], the IC50 in assay [1] was no more than 300 nM; in assay [2], greater than 100000 nM.

Take `N#Cc1c(NC(=O)CCc2ccco2)sc2c1CCN(C(=O)OCc1ccncc1)C2` [Example 44, 3-Cyano-2-(3-furan-2-yl-propanoylamino)-4,7-dihydro-5H-thieno[2,3-c]pyridine-6-carboxylic acid pyridin-4-ylmethyl ester]: the IC50 in assay [1] was no more than 300 nM; in assay [2], greater than 100000 nM.

For the compound `N#Cc1c(NC(=O)CCc2ccco2)sc2c1CCN(C(=O)OCCc1ccccn1)C2` [Example 45, 3-Cyano-2-(3-furan-2-yl-propanoylamino)-4,7-dihydro-5H-thieno[2,3-c]pyridine-6-carboxylic acid 2-pyridin-2-yl-ethyl ester], the IC50 in assay [1] was no more than 300 nM; in assay [2], greater than 100000 nM.

`N#Cc1c(NC(=O)CCc2cccnc2)sc2c1CCN(C(=O)OCCc1ccccn1)C2` [Example 46, 3-Cyano-2-(3-pyridin-3-yl-propanoylamino)-4,7-dihydro-5H-thieno[2,3-c]pyridine-6-carboxylic acid 2-pyridin-2-yl-ethyl ester]: the IC50 was 300 to 2000 nM in assay [1] and greater than 100000 nM in assay [2].

Take `CCOC(=O)N1CCc2c(sc(NC(=O)CC(C)(C)c3ccccc3)c2C#N)C1` [Example 47, 3-Cyano-2-(3-methyl-3-phenyl-butanoylamino)-4,7-dihydro-5H-thieno[2,3-c]pyridine-6-carboxylic acid ethyl ester]: the IC50 was no more than 300 nM in assay [1] and greater than 100000 nM in assay [2].

For the compound `CCOC(=O)N1CCc2c(sc(NC(=O)C3CC3c3ccco3)c2C#N)C1` (centres unmarked) [Example 48, 3-Cyano-2-{[1-(2-furan-2-yl-cyclopropyl)-methanoyl]-amino}-4,7-dihydro-5H-thieno[2,3-c]pyridine-6-carboxylic acid ethyl ester], the IC50 in assay [1] is no more than 300 nM; in assay [2], greater than 100000 nM.

Consider `N#Cc1c(NC(=O)CCc2ccccc2)sc2c1CCN(C(=O)OCCN1CCOCC1)C2` [Example 50, 3-Cyano-2-(3-phenyl-propanoylamino)-4,7-dihydro-5H-thieno[2,3-c]pyridine-6-carboxylic acid 2-morpholin-4-yl-ethyl ester], for which the values for the IC50 in assay [1] and in assay [2] were no more than 300 nM and greater than 100000 nM, respectively.

Turning to `N#Cc1c(NC(=O)CCc2ccco2)sc2c1CCN(C(=O)OCCN1CCOCC1)C2` [Example 51, 3-Cyano-2-(3-furan-2-yl-propanoylamino)-4,7-dihydro-5H-thieno[2,3-c]pyridine-6-carboxylic acid 2-morpholin-4-yl-ethyl ester], the values for the IC50 in assay [1] and in assay [2] were no more than 300 nM and greater than 100000 nM, respectively.

In the case of `N#Cc1c(NC(=O)CCc2ccccc2)sc2c1CCN(C(=O)OCCn1ccnc1)C2` [Example 54, 3-Cyano-2-(3-phenyl-propanoylamino)-4,7-dihydro-5H-thieno[2,3-c]pyridine-6-carboxylic acid 2-imidazol-1-yl-ethyl ester], the values for the half-inhibitory concentration (IC50) in assay [1] and in assay [2] were no more than 300 nM and greater than 100000 nM, respectively.

With `N#Cc1c(NC(=O)CCc2ccco2)sc2c1CCN(C(=O)OCCO)C2` [Example 55, 3-Cyano-2-(3-furan-2-yl-propanoylamino)-4,7-dihydro-5H-thieno[2,3-c]pyridine-6-carboxylic acid 2-hydroxy-ethyl ester], the IC50 in assay [1] is no more than 300 nM; in assay [2], greater than 100000 nM.

For `N#Cc1c(NC(=O)CCc2ccccn2)sc2c1CCN(C(=O)OCCc1cccnc1)C2` [Example 107, 3-Cyano-2-(3-pyridin-2-yl-propanoylamino)-4,7-dihydro-5H-thieno[2,3-c]pyridine-6-carboxylic acid 2-pyridin-3-yl-ethyl ester], the IC50 in assay [1] is 300 to 2000 nM; in assay [2] it was greater than 100000 nM.

(Values after patent publication US7714135B2, “Tetrahydropyridothiophenes for the treatment of proliferative diseases such as cancer” (4SC AG, priority 2005, dated 2010).)
